{"source": "patent US12428455B2", "about": "“Dominant negative CEBPB and CEBPD proteins and methods of use for decreasing viability of neoplastic cells” (The Trustees of Columbia University in the City of New York, priority 2018, dated 2025)", "key": {"MDA-MB 231 cells": {"system": "MDA-MB 231 cells", "test": "Colony forming activity in soft agar, MDA-MB 231", "format": "cell-based", "conditions": "6 days; doses 0.05, 0.5 and 5 μM", "description": "(§1) T98G (FIG. 21A), MDA-MB 231 (FIG. 21B), and HCT116 (FIG. 21C) cells were exposed to CP-DN-CEBPB and CP-DN-CEBPD for 6 days at doses of 0.05 μM 0.5 μM, and 5 μM while growing in soft agar. Growth was inhibited by does as low as 0.5 μM. T98G (FIG. 21D), MDA-MB 231 (FIG. 21E), and HCT116 (FIG. 21F) cells were exposed to CP-DN-CEBPB and CP-DN-CEBPD for 6 days at doses of 0.05 μM 0.5 μM, and 5 μM while growing on culture plates. Growth was inhibited by does as low as 0.5 μM."}, "HCT116 cells [1]": {"system": "HCT116 cells", "test": "Colony forming activity on culture plates, HCT116", "format": "cell-based", "conditions": "6 days; doses 0.05, 0.5 and 5 μM", "description": "as §1"}, "HCT116 cells [2]": {"system": "HCT116 cells", "test": "Apoptotic nuclei, propidium iodide flow cytometry, HCT116", "format": "cell-based", "conditions": "20 μM, 3 days, vs untreated cells", "description": "MDA-MB-231, MCF7, HCT116 and T98G cancer cell lines were treated for 3 days with 20 μM CP-dn-CEBPB and CP-dn-CEBPD peptides from stock solutions prepared without additives. Cultures were stained with propidium iodide and assessed for proportion of cells with apoptotic nuclei by flow cytometry."}, "[3]": {"system": "HIEC-6 non-cancer cell lines", "test": "PI-Annexin staining and flow cytometry, HIEC-6", "format": "cell-based, human", "conditions": "20 μM, 3 days", "description": "MDA-MB-231, MCF7, HCT116 and T98G cancer cell lines and HIEC-6 non-cancer cell lines were treated for 3 days with 20 μM CP-dn-CEBPB and CP-dn-CEBPD peptides from stock solutions prepared without additives, followed by PI-Annexin staining and flow cytometry. Numbers in upper and lower quadrants indicate % of cells in early (lower) or late (upper) apoptotic phase."}, "T98G and HCT116 cells": {"system": "T98G and HCT116 cells", "test": "Combination with gamma radiation, overall conclusion", "format": "cell-based", "conditions": "2 Gy or 5 Gy; immediate or delayed peptide treatment", "description": "Replicate cultures of T98G and HCT116 cells were exposed to 2 Gy or 5 Gy of gamma radiation. Immediately, the cultures were treated with 3 μM, 10 μM, or 20 μM CP-dn-CEBPB and CP-dn-CEBPD peptides, maintained for 6 days, and then assessed for cell number. […]\nReplicate cultures of T98G and HCT116 cells were exposed to 2 Gy or 5 Gy of gamma radiation. One day later, the cultures were treated with 0.05 μM, 0.5 μM, or 5 μM CP-dn-CEBPB and CP-dn-CEBPD peptides, maintained for 6 days, and then assessed for cell number. The bar graphs of FIGS. 24A (T98G, CP-dn-CEBPB), 24C (T98G, CP-dn-CEBPBD, 24E (HCT116, CP-dn-CEBPD), and 24G (HCT116, CP-dn-CEBPD) show relative cell numbers for each condition as compared to untreated controls. The line graphs of FIGS. 24B (T98G, CP-dn-CEBPB), 24D (T98G, CP-dn-CEBPBD, 24F (HCT116, CP-dn-CEBPB), and 24H (HCT116, CP-dn-CEBPD) show the response as normalized in each case so that 100 represents the relative number of surviving cells that received the indicated level of radiation treatment, but no peptide treatment. Calculated Combination Indexes (CI) are T98G, CI=0.61±0.05 for CP-dn-CEBPB, 0.68±0.07 for CP-dn-CEBPD; HCT116, 0.89±0.04 for CP-dn-CEBPB, 0.86±0.05 for CP-dn-CEBPD. […]"}, "HCT116 cells [4]": {"system": "HCT116 cells", "test": "Combination with chloroquine, cell number, HCT116", "format": "cell-based", "conditions": "5 μM or 10 μM chloroquine and 3 μM or 10 μM peptide, 6 days", "description": "Replicate cultures of T98G, MDA-MB 231, and HCT116 cells were treated with 5 μM or 10 μM chloroquine and 3 μM or 10 μM CP-dn-CEBPB and CP-dn-CEBPD peptides, maintained for 6 days, and then assessed for cell number. The bar graphs of FIGS. 29A (T98G, CP-dn-CEBPB), 29C (T98G, CP-dn-CEBPBD, 29E (MDA-MB-231, CP-dn-CEBPBD), 29G (MDA-MB-231, CP-dn-CEBPD), 29I (HCT116, CP-dn-CEBPBB), and 26K (HCT116, CP-dn-CEBPBD) show relative cell numbers for each condition as compared to untreated controls. The line graphs of FIGS. 26B (T98G, CP-dn-CEBPB), 26D (T98G, CP-dn-CEBPBD), 26F (MDA-MB-231, CP-dn-CEBPB), 26H (MDA-MB-231, CP-dn-CEBPD), 26J (HCT116, CP-dn-CEBPB), and 26L (HCT116 CP-dn-CEBPBD) show the response as normalized in each case so that 100 represents the relative number of surviving cells that received the indicated level of chloroquine, but no peptide treatment. The results ranged from near-additive (HCT116 cells, CI=0.92±0.08 for CP-dn-CEBPB and 0.87±0.07 for CP-dn-CEBPD) to apparent synergy (T98G, CI=0.56±0.06 for CP-dn-CEBPB and 0.75±0.03 for CP-dn-CEBPD; MDA-MB-261, CI=0.59±0.11 for CP-dn-CEBPB and 0.47±0.05 for CP-dn-CEBPD)."}}, "note": "No end group written: not given here."}
{"sequence": "RQIKIWFQNRRMKWKKLVELSAENEKLHQRVEQLTRDLAGLRQFFK [CP-DN-CEBPD]", "values": [{"measurement": "lowest dose at which growth was inhibited, soft agar", "setting": "MDA-MB 231 cells", "value": 0.5, "unit": "µM"}, {"measurement": "lowest dose at which growth was inhibited, culture plates", "setting": "HCT116 cells [1]", "value": 0.5, "unit": "µM"}, {"measurement": "proportion of cells with apoptotic nuclei", "setting": "HCT116 cells [2]", "value": "increased apoptotic cell death"}, {"measurement": "apoptotic death (early or late apoptotic phase)", "setting": "[3]", "value": "not in the control non-caner cell line"}, {"measurement": "kind of combined effect with gamma radiation", "setting": "T98G and HCT116 cells", "value": "synergistic effect"}, {"measurement": "CI with chloroquine", "setting": "HCT116 cells [4]", "value": "0.87±0.07"}]}
{"sequence": "RQIKIWFQNRRMKWKKLETQHKVLELTAENERLQKKVEQLSRELSTLRNLFKQL [CP-DN-CEBPB]", "values": [{"measurement": "lowest dose at which growth was inhibited, soft agar", "setting": "MDA-MB 231 cells", "value": 0.5, "unit": "µM"}, {"measurement": "lowest dose at which growth was inhibited, culture plates", "setting": "HCT116 cells [1]", "value": 0.5, "unit": "µM"}, {"measurement": "proportion of cells with apoptotic nuclei", "setting": "HCT116 cells [2]", "value": "increased apoptotic cell death"}, {"measurement": "apoptotic death (early or late apoptotic phase)", "setting": "[3]", "value": "not in the control non-caner cell line"}, {"measurement": "kind of combined effect with gamma radiation", "setting": "T98G and HCT116 cells", "value": "synergistic effect"}, {"measurement": "CI with chloroquine", "setting": "HCT116 cells [4]", "value": "0.92±0.08"}]}
